B1: RNase 7: Recombinant human RNase 7, used to verify sensitivity of UTI89 to killing by antimicrobial peptides (protein, UniProt Q9H1E1 29-156, looked up)
Ribonuclease 7: KPKGMTSSQWFKIQHMQPSPQACNSAMKNINKHTKRCKDLNTFLHEPFSSVAATCQTPKIACKNGDKNCHQSHGAVSLTMCKLTSGKHPNCRYKEKRQNKSYVVACKPPQKKDSQQFHLVPVHLDRVL

System: UPEC strain UTI89
Assay: Microdilution bactericidal assay of recombinant antimicrobial peptides (CFU count, MIC)
Assay type: cell-based, Escherichia coli
Settings: for bactericidal activity toward UPEC in vitro (in words): UTI89, recombinant peptide, microdilution assay; for minimum inhibition concentration (MIC), lowest peptide concentration inhibiting growth of 90% of the inoculum: UTI89 10^5 CFU, 0.3125-10 µM peptide in 50 µl 0.1X PBS, 3 hours at 37°C, then plated overnight on LB, CFU versus untreated bacteria
Protocol: Recombinant mBD-3 was synthesized in E. coli (5987-BD, R&D Systems, Minneapolis, MN). Recombinant mBD-14 was synthesized as a mature peptide in E. coli and purified as described. Antimicrobial activity of recombinant peptides was evaluated by microdilution assay. Briefly, UTI89 bacteria (10^5 CFU) were incubated with 0.3125, 0.625, 1.25, 2.5, 5, or 10 µM of mBD-3 or mBD-14 in 50 µl 0.1X PBS buffer for 3 hours at 37°C, then plated overnight on LB at 37°C. Next, the number of CFU at each concentration of peptide was determined. Using untreated bacteria as baseline, the minimum inhibition concentration (MIC) was identified by the lowest peptide concentration inhibiting growth of 90% of the inoculum as described previously. Sensitivity of the UTI89 bacterial strain to killing by antimicrobial peptides was verified with the use of recombinant human RNase 7, yielding MIC of 0.2-0.4 µM, consistent with published data[24].

| Molecule | bactericidal activity toward UPEC in vitro (in words) | minimum inhibition concentration (MIC), lowest peptide concentration inhibiting growth of 90% of the inoculum [µM] |
| --- | --- | --- |
| mBD-14: Recombinant mBD-14 synthesized as a mature peptide in E. coli and purified; protein encoded by Defb14 (FLPKTLRKFFCRIRGGRCAVLNCLGKEEQIGRCSNSGRKCCRKKK; UniProt Q7TNV9 23-67, looked up) | dose-dependent bactericidal activity | – |
| mBD-3: Recombinant mBD-3 synthesized in E. coli (5987-BD, R&D Systems); protein encoded by Defb3 (KKINNPVSCLRKGGRCWNRCIGNTRQIGSCGVPFLKCCKRK; UniProt Q9WTL0 23-63, looked up) | dose-dependent bactericidal activity | 1.25 to 2.5 |
| B1 | – | 0.2 to 0.4 |
